Converted amounts (≈) assume the structure as drawn.
What was measured:
Format in all cases: functional
Dialister micraerophilus [1] = test: Antimicrobial activity against Dialister micraerophilus assessed as susceptibility breakpoint by CA-SFM method
[2] = tested on: Dialister propionicifaciens; test: Antimicrobial activity against Dialister propionicifaciens assessed as susceptibility breakpoint by CA-SFM method
Dialister invisus [3] = test: Antimicrobial activity against Dialister invisus assessed as susceptibility breakpoint by CA-SFM method
Dialister pneumosintes [4] = test: Antimicrobial activity against Dialister pneumosintes assessed as susceptibility breakpoint by CA-SFM method
Dialister pneumosintes [5] = test: Antimicrobial activity against Dialister pneumosintes by agar dilution method
Dialister micraerophilus [6] = test: Antimicrobial activity against Dialister micraerophilus by agar dilution method
[7] = tested on: Dialister propionicifaciens; test: Antimicrobial activity against Dialister propionicifaciens by agar dilution method
Dialister invisus [8] = test: Antimicrobial activity against Dialister invisus by agar dilution method
[9] = tested on: Dialister propionicifaciens; test: Antimicrobial activity against Dialister propionicifaciens assessed as susceptibility breakpoint by CLSI method
Dialister micraerophilus [10] = test: Antimicrobial activity against Dialister micraerophilus assessed as susceptibility breakpoint by CLSI method
Dialister pneumosintes [11] = test: Antimicrobial activity against Dialister pneumosintes assessed as susceptibility breakpoint by CLSI method
Dialister invisus [12] = test: Antimicrobial activity against Dialister invisus assessed as susceptibility breakpoint by CLSI method

Structure (SMILES) | MIC (Dialister pneumosintes [5]) [µg/mL] | MIC50 (Dialister pneumosintes [5]) [µg/mL] | MIC90 (Dialister pneumosintes [5]) [µg/mL] | MIC (Dialister micraerophilus [6]) [µg/mL] | MIC50 (Dialister micraerophilus [6]) [µg/mL] | MIC90 (Dialister micraerophilus [6]) [µg/mL] | MIC [7] [µg/mL] | MIC (Dialister invisus [8]) [µg/mL] | Activity (Dialister micraerophilus [1]) | Activity [2] | Activity (Dialister invisus [3]) | Activity (Dialister pneumosintes [4]) | Activity [9] | Activity (Dialister micraerophilus [10]) | Activity (Dialister pneumosintes [11]) | Activity (Dialister invisus [12])
O=C(O)c1cn(C2CC2)c2cc(N3CCNCC3)c(F)cc2c1=O [CIPROFLOXACIN] | ≤ 0.06 | ≤ 0.06 | ≤ 0.06 | ≤ 0.06 | ≤ 0.06 | ≤ 0.06 | ≤ 0.06 | ≤ 0.06 | <=0.5 ug ml-1 | <=0.5 ug ml-1 | <=0.5 ug ml-1 | <=0.5 ug ml-1 |  |  |  | 
C[C@H]1COc2c(N3CCN(C)CC3)c(F)cc3c(=O)c(C(=O)O)cn1c23.C[C@H]1COc2c(N3CCN(C)CC3)c(F)cc3c(=O)c(C(=O)O)cn1c23.O [LEVOFLOXACIN] | 0.25 | 0.25 | 0.5 | 0.25 |  |  | 0.25 |  | <=1 ug ml-1 | <=1 ug ml-1 | <=1 ug ml-1 | <=1 ug ml-1 |  |  |  | 
COc1c(N2C[C@@H]3CCCN[C@@H]3C2)c(F)cc2c(=O)c(C(=O)O)cn(C3CC3)c12 [MOXIFLOXACIN] | ≤ 0.06 | ≤ 0.06 | 0.06 (≈ 0.149 µM) | ≤ 0.06 | ≤ 0.06 | 0.25 (≈ 0.623 µM) | ≤ 0.06 | ≤ 0.06 | <=1 ug ml-1 |  |  | <=1 ug ml-1 |  |  |  | 
CC[C@H]1OC(=O)[C@H](C)C(=O)[C@H](C)[C@@H](O[C@@H]2O[C@H](C)C[C@H](N(C)C)[C@H]2O)[C@](C)(OC)C[C@@H](C)C(=O)[C@H](C)[C@H]2N(CCCCn3cnc(-c4cccnc4)c3)C(=O)O[C@]12C [TELITHROMYCIN] | ≤ 0.06 | ≤ 0.06 | ≤ 0.06 | ≤ 0.06 | ≤ 0.06 | ≤ 0.06 | ≤ 0.06 | ≤ 0.06 | <=0.5 ug ml-1 | <=0.5 ug ml-1 | <=0.5 ug ml-1 | <=0.5 ug ml-1 |  |  |  | 
Cc1ncc([N+](=O)[O-])n1CCO [METRONIDAZOLE] | 1 (≈ 5.84 µM) | 4 (≈ 23.4 µM) | 8 (≈ 46.7 µM) | 1 (≈ 5.84 µM) | 2 (≈ 11.7 µM) | 8 (≈ 46.7 µM) | 1 (≈ 5.84 µM) | 2 (≈ 11.7 µM) | <=2 ug ml-1 | <=2 ug ml-1 | <=2 ug ml-1 | <=2 ug ml-1 | <=8 ug ml-1 | <=8 ug ml-1 | <=8 ug ml-1 | <=8 ug ml-1
O=C(N[C@H](CO)[C@H](O)c1ccc([N+](=O)[O-])cc1)C(Cl)Cl [CHLORAMPHENICOL] | 0.25 (≈ 0.774 µM) | 0.25 (≈ 0.774 µM) | 0.5 (≈ 1.55 µM) | 0.25 (≈ 0.774 µM) | 0.25 (≈ 0.774 µM) | 1 (≈ 3.09 µM) | 0.25 (≈ 0.774 µM) | 0.25 (≈ 0.774 µM) | <=8 ug ml-1 | <=8 ug ml-1 | <=8 ug ml-1 | <=8 ug ml-1 | <=8 ug ml-1 | <=8 ug ml-1 | <=8 ug ml-1 | <=8 ug ml-1
CC[C@H]1OC(=O)[C@H](C)[C@@H](O[C@H]2C[C@@](C)(OC)[C@@H](O)[C@H](C)O2)[C@H](C)[C@@H](O[C@@H]2O[C@H](C)C[C@H](N(C)C)[C@H]2O)[C@](C)(O)C[C@@H](C)C(=O)[C@H](C)[C@@H](O)[C@]1(C)O [ERYTHROMYCIN] | 0.125 (≈ 0.17 µM) | 1 (≈ 1.36 µM) | 2 (≈ 2.73 µM) | 0.125 (≈ 0.17 µM) |  |  | 0.125 (≈ 0.17 µM) |  | <=1 ug ml-1 | <=1 ug ml-1 | <=1 ug ml-1 | <=1 ug ml-1 |  |  |  | 
C[C@@H](O)[C@H]1C(=O)N2C(C(=O)O)=C(SCCNC=N)C[C@H]12 [IMIPENEM ANHYDROUS] | ≤ 0.06 | ≤ 0.06 | 0.25 (≈ 0.835 µM) |  | 0.06 (≈ 0.2 µM) | ≤ 0.06 | ≤ 0.06 | 0.06 (≈ 0.2 µM) | <=4 ug ml-1 | <=4 ug ml-1 | <=4 ug ml-1 | <=4 ug ml-1 | <=4 ug ml-1 | <=4 ug ml-1 | <=4 ug ml-1 | <=4 ug ml-1
CCC[C@@H]1C[C@@H](C(=O)N[C@@H]([C@H]2O[C@H](SC)[C@H](O)[C@@H](O)[C@H]2O)[C@H](C)Cl)N(C)C1 [CLINDAMYCIN] | 0.125 (≈ 0.294 µM) | 0.125 (≈ 0.294 µM) | 0.125 (≈ 0.294 µM) | 0.125 (≈ 0.294 µM) | 0.125 (≈ 0.294 µM) | 0.125 (≈ 0.294 µM) | 0.125 (≈ 0.294 µM) | 0.125 (≈ 0.294 µM) | <=2 ug ml-1 | <=2 ug ml-1 | <=2 ug ml-1 | <=2 ug ml-1 | <=2 ug ml-1 | <=2 ug ml-1 | <=2 ug ml-1 | <=2 ug ml-1
C[C@H]1c2cccc(O)c2C(=O)C2=C(O)[C@]3(O)C(=O)C(C(N)=O)=C(O)[C@@H](N(C)C)[C@@H]3[C@@H](O)[C@@H]21.O [DOXYCYCLINE] | ≤ 0.06 | 0.25 | 0.25 | ≤ 0.06 |  |  | ≤ 0.06 |  | <=4 ug ml-1 | <=4 ug ml-1 | <=4 ug ml-1 | <=4 ug ml-1 |  |  |  | 
CO[C@H]1/C=C/O[C@@]2(C)Oc3c(C)c(O)c4c(O)c(c(/C=N/N5CCN(C)CC5)c(O)c4c3C2=O)NC(=O)/C(C)=C\C=C\[C@H](C)[C@H](O)[C@@H](C)[C@@H](O)[C@@H](C)[C@H](OC(C)=O)[C@@H]1C [RIFAMPIN] | ≤ 0.06 | 2 (≈ 2.43 µM) | 4 (≈ 4.86 µM) | ≤ 0.06 | ≤ 0.06 | ≤ 0.06 | ≤ 0.06 | ≤ 0.06 | <=2 ug ml-1 | <=2 ug ml-1 | <=2 ug ml-1 | <=2 ug ml-1 |  |  |  | 

More lines, main results first:

MIC (Dialister pneumosintes [5]) [µg/mL] | MIC50 (Dialister pneumosintes [5]) [µg/mL] | MIC90 (Dialister pneumosintes [5]) [µg/mL] | MIC (Dialister micraerophilus [6]) [µg/mL] | MIC50 (Dialister micraerophilus [6]) [µg/mL] | MIC90 (Dialister micraerophilus [6]) [µg/mL] | MIC [7] [µg/mL] | MIC (Dialister invisus [8]) [µg/mL] | Structure (SMILES) | Activity (Dialister micraerophilus [1]) | Activity [2] | Activity (Dialister invisus [3]) | Activity (Dialister pneumosintes [4]) | Activity [9] | Activity (Dialister micraerophilus [10]) | Activity (Dialister pneumosintes [11]) | Activity (Dialister invisus [12])
≤ 0.125 | 1 (≈ 1.93 µM) | 16 (≈ 30.9 µM) |  | 0.125 (≈ 0.242 µM) | 1 (≈ 1.93 µM) | 0.125 (≈ 0.242 µM) | 0.125 (≈ 0.242 µM) | CCN1CCN(C(=O)N[C@@H](C(=O)N[C@@H]2C(=O)N3[C@@H]2SC(C)(C)[C@@H]3C(=O)O)c2ccccc2)C(=O)C1=O [PIPERACILLIN] | <=8 ug ml-1 | <=8 ug ml-1 | <=8 ug ml-1 | <=8 ug ml-1 | <=32 ug ml-1 | <=32 ug ml-1 | <=32 ug ml-1 | <=32 ug ml-1
0.5 (≈ 1.17 µM) | 0.5 (≈ 1.17 µM) | 1 (≈ 2.34 µM) | 0.5 (≈ 1.17 µM) | 0.5 (≈ 1.17 µM) | 0.5 (≈ 1.17 µM) | 0.5 (≈ 1.17 µM) | 0.5 (≈ 1.17 µM) | CO[C@@]1(NC(=O)Cc2cccs2)C(=O)N2C(C(=O)O)=C(COC(N)=O)CS[C@@H]21 [CEFOXITIN] | <=8 ug ml-1 | <=8 ug ml-1 | <=8 ug ml-1 | <=8 ug ml-1 | <=16 ug ml-1 | <=16 ug ml-1 | <=16 ug ml-1 | <=16 ug ml-1
0.125 (≈ 0.263 µM) | 0.125 (≈ 0.263 µM) | 0.125 (≈ 0.263 µM) | 0.125 (≈ 0.263 µM) |  |  | 0.125 (≈ 0.263 µM) |  | C[C@@H](O)[C@H]1C(=O)N2C(C(=O)O)=C(S[C@@H]3CN[C@H](C(=O)Nc4cccc(C(=O)O)c4)C3)[C@H](C)[C@H]12 | <=4 ug ml-1 | <=4 ug ml-1 | <=4 ug ml-1 | <=4 ug ml-1 | <=4 ug ml-1 | <=4 ug ml-1 | <=4 ug ml-1 | <=4 ug ml-1
≤ 0.06 | ≤ 0.06 | ≤ 0.06 | ≤ 0.06 | ≤ 0.06 | ≤ 0.06 | ≤ 0.06 | ≤ 0.06 | CC1(C)S[C@@H]2[C@H](NC(=O)[C@H](N)c3ccc(O)cc3)C(=O)N2[C@H]1C(=O)O [AMOXICILLIN] | <=0.5 ug ml-1 | <=0.5 ug ml-1 | <=0.5 ug ml-1 | <=0.5 ug ml-1 | <=0.5 ug ml-1 | <=0.5 ug ml-1 | <=0.5 ug ml-1 | <=0.5 ug ml-1
0.25 (≈ 0.631 µM) | 0.5 (≈ 1.26 µM) | 1 (≈ 2.52 µM) | 0.25 (≈ 0.631 µM) |  |  | 0.25 (≈ 0.631 µM) |  | CC(=O)OCC1=C(C(=O)O)N2C(=O)[C@@H](NC(=O)Cc3cccs3)[C@H]2SC1 [CEPHALOTHIN] | <=8 ug ml-1 | <=8 ug ml-1 | <=8 ug ml-1 | <=8 ug ml-1 |  |  |  | 
≤ 0.06 | 0.25 (≈ 0.65 µM) | 2 (≈ 5.2 µM) | ≤ 0.06 | ≤ 0.06 | 0.5 (≈ 1.3 µM) | ≤ 0.06 | 0.25 (≈ 0.65 µM) | CC1(C)S[C@@H]2[C@H](NC(=O)[C@H](C(=O)O)c3ccsc3)C(=O)N2[C@H]1C(=O)O [TICARCILLIN] | <=16 ug ml-1 | <=16 ug ml-1 | <=16 ug ml-1 | <=16 ug ml-1 | <=32 ug ml-1 | <=32 ug ml-1 | <=32 ug ml-1 | <=32 ug ml-1

From ChEMBL document CHEMBL1151441, “Antimicrobial susceptibilities and clinical sources of Dialister species” (2007)
